Series [1] deals with LasB (Pseudomonas aeruginosa, UniProt Q02RJ6). The following applies: vs 4-OMe analogue.
Series [2] concerns the target peptidase domain of ColT (ColT-PD) (Clostridium tetani, UniProt Q899Y1). As to the kind of experiment: biochemical. Set-up: species or system C. tetani. The following applies: read-out: ColT-PD % inhibition @ 100 μM.
For series [3], the target named is collagenase unit of ColG (ColG-CU) (Hathewaya histolytica, UniProt Q9X721). As to the kind of experiment: biochemical. As to conditions: read-out: ColG-CU % inhibition @ 100 μM. Also noted: species or system C. histolyticum.
Chain of collagenase unit of ColG (ColG-CU) (Q9X721 111-786): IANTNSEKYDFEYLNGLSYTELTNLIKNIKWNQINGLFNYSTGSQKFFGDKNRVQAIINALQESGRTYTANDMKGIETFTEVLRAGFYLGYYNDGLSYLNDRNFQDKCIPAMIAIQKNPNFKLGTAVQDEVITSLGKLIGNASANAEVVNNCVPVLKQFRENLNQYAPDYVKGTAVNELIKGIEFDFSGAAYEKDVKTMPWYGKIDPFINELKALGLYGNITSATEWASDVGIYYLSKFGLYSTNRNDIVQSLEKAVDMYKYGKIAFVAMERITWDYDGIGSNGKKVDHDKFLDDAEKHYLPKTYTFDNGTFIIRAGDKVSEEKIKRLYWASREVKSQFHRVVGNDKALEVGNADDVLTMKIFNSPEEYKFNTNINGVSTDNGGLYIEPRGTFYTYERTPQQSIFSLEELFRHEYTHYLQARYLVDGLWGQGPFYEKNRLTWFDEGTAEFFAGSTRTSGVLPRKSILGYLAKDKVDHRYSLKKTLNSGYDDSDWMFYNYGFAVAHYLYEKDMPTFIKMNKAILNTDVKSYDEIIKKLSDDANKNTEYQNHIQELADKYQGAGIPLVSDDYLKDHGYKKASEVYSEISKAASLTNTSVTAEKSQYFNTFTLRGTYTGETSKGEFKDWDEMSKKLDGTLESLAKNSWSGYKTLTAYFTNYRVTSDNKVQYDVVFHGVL
Series [4] can be described thus: in vitro. The following applies: human, HepG2 cells (hepatocellular carcinoma).
Series [5] deals with MMP-8 (Homo sapiens, UniProt P22894). As to the kind of experiment: MMP-8 off-target inhibition. Type of series: biochemical. An excerpt:
(§1) Previously, we described N-aryl mercaptoacetamides with high selectivity for the bacterial over a broad range of human MMPs.[29],[30] MMPs are calcium-dependent zinc metalloproteases that play a pivotal role in numerous biochemical processes in humans.[39],[40] Based on the depth of their S1′ binding pocket, MMPs can be divided into three classes: deep (e.g., MMP-3 and -14), intermediate (e.g., MMP-2 and -8), and shallow (e.g., MMP-1 and -7). With the aim to explore the interactions of our inhibitors with all three pocket types, which could help us to assess potential effects on other not-tested representatives, we chose a panel of six MMPs, comprising two members of each class. In addition, HDAC-3, HDAC-8, and TACE (ADAM-17)—enzymes involved in gene expression and the processing of TNF-α,[41],[42] respectively—were selected as important additional human off-targets.

For series [6], the target named is T1, HDAC-8 (Homo sapiens, UniProt Q9BY41).
T1 construct: purchased Sigma-Aldrich (Saint Louis, MO)
T1 sequence (Q9BY41 1-377): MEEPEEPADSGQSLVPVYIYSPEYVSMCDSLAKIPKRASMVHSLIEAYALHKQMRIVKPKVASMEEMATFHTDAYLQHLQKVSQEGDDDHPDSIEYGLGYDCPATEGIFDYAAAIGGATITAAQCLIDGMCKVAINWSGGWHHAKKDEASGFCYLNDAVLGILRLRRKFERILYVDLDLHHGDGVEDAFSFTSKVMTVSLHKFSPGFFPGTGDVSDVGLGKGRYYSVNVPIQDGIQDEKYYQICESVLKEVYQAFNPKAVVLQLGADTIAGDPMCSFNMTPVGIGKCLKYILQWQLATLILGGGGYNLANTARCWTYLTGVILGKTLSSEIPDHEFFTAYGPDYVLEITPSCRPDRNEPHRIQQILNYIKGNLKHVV
As to the kind of experiment: HDAC-8 inhibitor screening kit. The series is classed as biochemical.
Text: as §1

Series [7] deals with T2, collagenase unit of ColQ1 (ColQ1-CU) (Bacillus cereus, UniProt B9J3S4).
T2 construct: the collagenase unit of ColQ1 (ColQ1-CU) from B. cereus strain Q1
T2 sequence (B9J3S4 94-765 limits assumed): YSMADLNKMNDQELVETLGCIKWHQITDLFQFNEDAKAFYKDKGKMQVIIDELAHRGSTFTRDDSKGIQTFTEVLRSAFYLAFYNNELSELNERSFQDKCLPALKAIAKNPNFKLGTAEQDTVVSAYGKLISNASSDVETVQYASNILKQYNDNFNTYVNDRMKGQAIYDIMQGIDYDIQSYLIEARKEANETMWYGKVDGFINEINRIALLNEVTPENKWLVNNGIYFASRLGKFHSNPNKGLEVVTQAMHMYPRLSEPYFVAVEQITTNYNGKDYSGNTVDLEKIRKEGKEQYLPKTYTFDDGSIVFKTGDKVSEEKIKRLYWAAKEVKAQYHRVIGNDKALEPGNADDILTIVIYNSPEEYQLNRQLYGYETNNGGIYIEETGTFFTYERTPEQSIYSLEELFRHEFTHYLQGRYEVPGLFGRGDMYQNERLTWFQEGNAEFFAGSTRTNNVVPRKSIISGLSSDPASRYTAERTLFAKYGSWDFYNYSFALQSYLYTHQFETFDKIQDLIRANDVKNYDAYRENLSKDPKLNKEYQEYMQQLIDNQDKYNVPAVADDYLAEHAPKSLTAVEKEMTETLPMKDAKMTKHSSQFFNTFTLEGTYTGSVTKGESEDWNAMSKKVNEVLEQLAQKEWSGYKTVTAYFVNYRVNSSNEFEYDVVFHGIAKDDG
As to the kind of experiment: biochemical. Also noted: species or system B. cereus strain Q1. As to conditions: read-out: ColQ1-CU % inhibition @ 100 μM.

Series [8] concerns the target T3, HDAC-3 (Homo sapiens, UniProt O15379).
T3 construct: purchased Sigma-Aldrich (Saint Louis, MO)
As to the kind of experiment: HDAC-3 inhibitor screening kit. The series is classed as biochemical.
Text: as §1

The target in series [9] is MMP-14 (Homo sapiens, UniProt P50281). As to the kind of experiment: MMP-14 off-target inhibition. Type of series: biochemical.
Text: as §1

Series [10] addresses MMP-3 (Homo sapiens, UniProt P08254). As to the kind of experiment: MMP-3 off-target inhibition. As to conditions: read-out: MMP-3 % inhibition @ 100 μM; 100 μM compound. The series is classed as biochemical.
Text: as §1

Series [11] concerns C. histolyticum strain DSM 1126. As to the kind of experiment: Bacterial growth inhibition assay (MIC) C. histolyticum. The series is classed as cell-based, Clostridium histolyticum. As to conditions: strain DSM 1126, BHI medium, 48 h anaerobic.
Series [12] is described as follows: in vitro. As to conditions: human, HEK293 cells (embryonal kidney).
Series [13] is described as follows: in vitro. As to conditions: human, A549 cells (lung carcinoma).
Series [14] addresses T4, MMP-2 (Homo sapiens, UniProt P08253).
T4 sequence (P08253 110-660): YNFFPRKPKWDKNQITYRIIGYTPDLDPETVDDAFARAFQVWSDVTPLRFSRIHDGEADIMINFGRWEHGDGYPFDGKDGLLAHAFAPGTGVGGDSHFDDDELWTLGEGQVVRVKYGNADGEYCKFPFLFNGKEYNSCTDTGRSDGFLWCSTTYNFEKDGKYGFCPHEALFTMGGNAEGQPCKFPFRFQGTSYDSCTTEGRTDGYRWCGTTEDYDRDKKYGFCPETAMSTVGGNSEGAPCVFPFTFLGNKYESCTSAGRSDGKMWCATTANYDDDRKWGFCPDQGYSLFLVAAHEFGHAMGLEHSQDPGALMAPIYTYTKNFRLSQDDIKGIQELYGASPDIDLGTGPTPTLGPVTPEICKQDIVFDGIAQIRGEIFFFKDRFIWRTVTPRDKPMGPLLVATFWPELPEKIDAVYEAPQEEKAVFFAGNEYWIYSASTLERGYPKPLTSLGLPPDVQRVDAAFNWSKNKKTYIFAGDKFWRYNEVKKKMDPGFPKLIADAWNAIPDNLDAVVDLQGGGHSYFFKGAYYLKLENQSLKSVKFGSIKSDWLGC
As to the kind of experiment: MMP-2 off-target inhibition. The series is classed as biochemical.
Text: as §1

The target in series [15] is T5, MMP-1 (Homo sapiens, UniProt P03956).
T5 sequence (P03956 100-469): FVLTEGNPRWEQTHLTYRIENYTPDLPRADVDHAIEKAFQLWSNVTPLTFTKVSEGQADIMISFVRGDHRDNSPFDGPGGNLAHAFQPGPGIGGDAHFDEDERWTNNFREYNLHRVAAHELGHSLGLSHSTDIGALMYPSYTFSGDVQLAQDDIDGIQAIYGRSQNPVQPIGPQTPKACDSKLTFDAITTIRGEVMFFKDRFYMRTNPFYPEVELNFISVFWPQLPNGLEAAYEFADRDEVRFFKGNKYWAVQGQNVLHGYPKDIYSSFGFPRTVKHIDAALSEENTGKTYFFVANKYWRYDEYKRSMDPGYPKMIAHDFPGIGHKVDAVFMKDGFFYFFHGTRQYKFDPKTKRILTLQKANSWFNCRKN
As to the kind of experiment: MMP-1 off-target inhibition. The series is classed as biochemical. The following applies: read-out: MMP-1 % inhibition @ 100 μM; 100 μM compound.
Text: as §1

The target of series [16] is T6, TACE (ADAM-17) (Homo sapiens, UniProt P78536).
T6 construct: purchased Sigma-Aldrich (Saint Louis, MO)
T6 sequence (P78536 215-824): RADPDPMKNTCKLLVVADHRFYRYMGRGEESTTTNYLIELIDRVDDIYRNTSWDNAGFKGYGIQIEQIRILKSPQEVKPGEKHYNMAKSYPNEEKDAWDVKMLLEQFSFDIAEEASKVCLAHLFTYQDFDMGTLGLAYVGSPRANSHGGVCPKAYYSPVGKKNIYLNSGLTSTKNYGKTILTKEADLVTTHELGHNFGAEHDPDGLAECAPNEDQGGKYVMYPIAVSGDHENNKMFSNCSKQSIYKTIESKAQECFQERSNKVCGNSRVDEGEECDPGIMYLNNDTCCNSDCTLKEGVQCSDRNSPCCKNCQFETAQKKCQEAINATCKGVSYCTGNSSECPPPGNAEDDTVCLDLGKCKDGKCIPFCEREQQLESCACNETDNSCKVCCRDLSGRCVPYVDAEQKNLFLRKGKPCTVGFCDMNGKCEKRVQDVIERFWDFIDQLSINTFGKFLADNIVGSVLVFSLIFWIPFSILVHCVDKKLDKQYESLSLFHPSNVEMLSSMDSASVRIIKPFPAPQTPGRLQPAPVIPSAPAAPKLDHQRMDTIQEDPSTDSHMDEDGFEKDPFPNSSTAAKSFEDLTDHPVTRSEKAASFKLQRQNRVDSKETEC
As to the kind of experiment: TACE inhibitor screening kit. The series is classed as biochemical.
Text: as §1

The results in this text go back to article PMC7429951 (Journal of Medicinal Chemistry, 2020).

SMILES strings stand for the structures. Some results are limits rather than exact numbers.

Chain of MMP-8 (P22894 101-467): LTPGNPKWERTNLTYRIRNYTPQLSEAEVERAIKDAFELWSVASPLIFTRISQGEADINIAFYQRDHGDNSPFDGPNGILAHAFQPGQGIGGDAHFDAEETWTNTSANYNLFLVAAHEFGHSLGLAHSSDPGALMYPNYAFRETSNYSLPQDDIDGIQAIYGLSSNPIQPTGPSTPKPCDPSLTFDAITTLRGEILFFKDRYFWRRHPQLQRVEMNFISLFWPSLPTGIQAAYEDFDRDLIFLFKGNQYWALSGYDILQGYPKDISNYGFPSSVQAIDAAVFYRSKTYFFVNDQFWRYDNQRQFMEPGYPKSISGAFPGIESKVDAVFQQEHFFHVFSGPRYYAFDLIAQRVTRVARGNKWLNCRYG
Chain of peptidase domain of ColT (ColT-PD) (Q899Y1 340-731 limits assumed): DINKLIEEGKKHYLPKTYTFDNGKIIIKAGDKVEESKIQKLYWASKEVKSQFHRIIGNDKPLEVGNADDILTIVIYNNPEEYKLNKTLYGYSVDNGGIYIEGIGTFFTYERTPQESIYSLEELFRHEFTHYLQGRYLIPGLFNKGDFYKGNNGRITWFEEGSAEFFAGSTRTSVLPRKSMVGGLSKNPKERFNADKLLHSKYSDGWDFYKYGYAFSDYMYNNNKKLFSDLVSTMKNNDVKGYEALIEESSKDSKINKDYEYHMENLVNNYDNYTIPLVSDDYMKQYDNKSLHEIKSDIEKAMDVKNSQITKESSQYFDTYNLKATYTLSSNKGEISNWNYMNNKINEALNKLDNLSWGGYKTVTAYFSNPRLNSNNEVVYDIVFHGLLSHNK
Chain of MMP-3 (P08254 100-477): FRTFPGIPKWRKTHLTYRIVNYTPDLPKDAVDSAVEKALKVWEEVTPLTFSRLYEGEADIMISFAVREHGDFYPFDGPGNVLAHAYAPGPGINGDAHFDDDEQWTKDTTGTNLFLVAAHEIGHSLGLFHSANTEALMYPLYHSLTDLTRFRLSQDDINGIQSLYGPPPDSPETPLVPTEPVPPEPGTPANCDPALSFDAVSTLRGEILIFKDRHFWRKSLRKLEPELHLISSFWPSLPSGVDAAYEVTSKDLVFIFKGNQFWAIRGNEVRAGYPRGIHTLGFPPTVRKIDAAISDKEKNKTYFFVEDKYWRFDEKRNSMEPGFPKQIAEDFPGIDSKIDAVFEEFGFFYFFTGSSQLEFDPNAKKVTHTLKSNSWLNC
T3 sequence (O15379 whole entry): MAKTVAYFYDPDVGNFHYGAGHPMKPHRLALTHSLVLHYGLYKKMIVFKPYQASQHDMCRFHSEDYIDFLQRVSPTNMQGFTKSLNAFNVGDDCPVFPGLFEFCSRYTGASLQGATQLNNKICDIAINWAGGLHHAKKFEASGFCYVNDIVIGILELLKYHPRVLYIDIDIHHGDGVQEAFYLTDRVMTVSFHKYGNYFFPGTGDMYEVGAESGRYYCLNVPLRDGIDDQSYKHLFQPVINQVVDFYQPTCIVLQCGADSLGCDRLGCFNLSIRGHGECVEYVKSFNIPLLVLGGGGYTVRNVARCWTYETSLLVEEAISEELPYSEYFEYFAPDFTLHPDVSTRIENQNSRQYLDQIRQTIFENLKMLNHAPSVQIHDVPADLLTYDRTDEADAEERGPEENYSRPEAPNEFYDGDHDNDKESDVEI
T3 sequence (Q9Y618 395-489 partner limits assumed): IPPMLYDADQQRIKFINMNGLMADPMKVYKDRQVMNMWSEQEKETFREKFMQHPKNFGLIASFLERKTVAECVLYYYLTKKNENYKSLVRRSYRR
Chain of LasB (Q02RJ6 198-498): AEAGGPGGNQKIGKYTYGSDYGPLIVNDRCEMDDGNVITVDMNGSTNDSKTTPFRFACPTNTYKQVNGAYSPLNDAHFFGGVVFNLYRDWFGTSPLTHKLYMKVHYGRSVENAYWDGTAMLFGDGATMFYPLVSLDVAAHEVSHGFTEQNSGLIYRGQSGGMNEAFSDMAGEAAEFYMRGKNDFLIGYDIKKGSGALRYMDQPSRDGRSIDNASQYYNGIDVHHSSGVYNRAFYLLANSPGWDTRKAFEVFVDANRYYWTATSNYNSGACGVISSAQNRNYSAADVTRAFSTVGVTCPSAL

The IC50 is the midpoint of a concentration-inhibition curve. A high value points to lower potency. What is called MIC is the lowest concentration found to suppress growth. A high value points to weaker potency. Take `CC(=O)c1ccc(N2C(=O)CC(S)C2=O)cc1` (centres unmarked) [Compound 25, 1-(4-Acetylphenyl)-3-mercaptopyrrolidine-2,5-dione]: in series [1], the “times more active on LasB than its methoxy-analogue” value came out at 1.7 times. Moreover, the inhibition at 100 µM in series [2] is 102 ± 3%; in [3], 100 ± 2%; in series [5] (read-out: MMP-8 % inhibition @ 100 μM, 100 μM compound) it was 94 ± 1%; in series [7], 99 ± 2%; in series [9] (read-out: MMP-14 % inhibition @ 100 μM, 100 μM compound), 84 ± 8%; in series [10], < 10%. Besides, the inhibition at 100 µM in [14] (read-out: MMP-2 % inhibition @ 100 μM, 100 μM compound) is 14 ± 4%; in series [15] it was < 10%. For the same compound, the IC50 is > 100 µM in series [4]; > 100 µM in series [6]; > 100 µM in [8]; > 100 µM in series [12]; > 100 µM in series [13]; 3.4 ± 1.2 µM in [16]. The inhibition at 50 µM was < 10% in series [5] (50 µM compound, read-out: MMP-8 % inh @50µM); < 10% in series [9] (50 µM compound, read-out: MMP-14 % inh @50µM); < 10% in [14] (50 µM compound, read-out: MMP-2 % inh @50µM). Besides, the MIC in series [11] (Hathewaya histolytica, DSM1126) is > 100 µM; in series [11], >100 µM.
